This note sets out measurements from ChEMBL document CHEMBL1201862, “PubChem BioAssay data set” (2004).

Where “and” joins values, the source holds several entries; their conditions need not be identical. Equal values may be shown once.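 How tested: cells in 96-well plates exposed to compound for 48 hours at five concentrations. Abbreviation: GI50, concentration required for 50% inhibition of growth.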 Calls of active or inactive are those of the source. Rule as the data show it: active = GI50 up to about 1.1 µM and inactive = higher. Where a SMILES comes first, the peptide text is derived from it. The star is where a group is joined. Cbz = O=C(OCc1ccccc1)*

Test in all cases: inhibition of tumour cell growth, NCI panel, 48 h
In assay [1] the test system is A549.
The subject of assay [2] is BT-549.
Assay [3] deals with HCT-116.
The subject of assay [4] is HT-29.
The test system of assay [5] is IGROV-1.
Assay [6] has as its system MDA-N.
Assay [7] relates to NCI-H226.
The test system of assay [8] is NCI-H23.
Assay [9] relates to NCI/ADR-RES.
The subject of assay [10] is OVCAR-5.
The test system of assay [11] is OVCAR-8.
Assay [12] deals with RPMI-8226.
In assay [13] the test system is SF-295.
In assay [14] the test system is TK-10.
For assay [15], the system named is UACC-257.
The test system of assay [16] is HL-60.
The subject of assay [17] is NCI-H522.
The test system of assay [18] is SF-539.
The subject of assay [19] is SR.

In the case of `COc1ccc(/N=N/C(=N/NC(=O)c2cc(Cl)ccc2C(=O)c2ccccc2)c2ccc(N(CCC#N)CCC#N)cc2C)cc1`, the GI50 in [1] was 18.8 µM (inactive); in assay [2], 29.4 µM (inactive); in assay [3], 13.1 µM (inactive); in assay [4] it was 21.5 µM (inactive); in [5], 6.49 µM (inactive); in [6] it was 21.7 µM (inactive). In addition, the GI50 in assay [7] is 16.2 µM (inactive); in [8] it was 18 µM (inactive); in [9] it was 16.7 µM (inactive); in [10] it was 18.2 µM (inactive); in assay [11] it was 16.1 µM (inactive); in assay [12], 9.35 µM (inactive). Besides, the results for the GI50 in [13], in [14] and in assay [15] were 26.1 µM (inactive), 18.2 µM (inactive) and 27.7 µM (inactive), respectively.
Regarding `N#Cc1sc2c(c1OC(=O)c1ccc(Cl)cc1)c(=O)n(-c1ccccc1)c(=S)n2-c1ccccc1`, the GI50 in assay [1] is 31.4 µM (inactive); in assay [3] it was 15.4 µM (inactive); in assay [16] it was 19.4 µM (inactive); in assay [4], 22.4 µM (inactive); in [5], 16.7 µM (inactive); in [6] it was 20.3 µM (inactive). For the same compound, the GI50 in assay [7] was 26.7 µM (inactive); in assay [8], 21.7 µM (inactive); in assay [17], 0.504 µM (active); in [9], 23.3 µM (inactive); in assay [10] it was 25.8 µM (inactive); in [11], 18.1 µM (inactive). Moreover, the GI50 in [12] was 17.7 µM (inactive); in assay [13], 19.2 µM (inactive); in [18] it was 20.8 µM (inactive); in assay [19] it was 19.1 µM (inactive); in assay [14] it was 23.3 µM (inactive); in assay [15], 27.3 µM (inactive).
On to `CC(C)(Oc1ccccc1)C(=O)Sc1c(-c2ccccc2)c(=O)n(-c2ccccc2)c(=S)n1-c1ccccc1`, for which the GI50 in assay [1] was 43.3 µM (inactive); in assay [3] it was 50.1 µM (inactive); in [16], 25.9 µM (inactive); in assay [4], 50.9 µM (inactive); in assay [5] it was 22.6 µM (inactive); in assay [6], 56.8 µM (inactive). For the same compound, the GI50 in assay [7] is 31.1 µM (inactive); in assay [8] it was > 100 µM (inactive); in assay [17], 21.9 µM (inactive); in assay [9], 62.7 µM (inactive); in assay [10], 75.3 µM (inactive); in assay [11], 18.6 µM (inactive). The GI50 is 59.8 µM (inactive) in assay [13]; 23.8 µM (inactive) in assay [18]; 22.1 µM (inactive) in assay [19]; 92.5 µM (inactive) in assay [14]; > 100 µM (inactive) in assay [15].
Regarding `CN(C)C(c1ccccc1)C1COC2Cc3ccccc3C1O2` (stereo not given), the GI50 in assay [1] was > 100 µM (inactive); in assay [3], 98.2 µM (inactive) and 86.9 µM (inactive); in assay [16] it was 65 µM (inactive) and 46.8 µM (inactive); in assay [4], 47.5 µM (inactive) and 46.6 µM (inactive); in assay [5] it was > 100 µM (inactive); in [6], > 100 µM (inactive). Also, the GI50 in [7] is 72.9 µM (inactive); in assay [8] it was > 100 µM (inactive); in assay [17] it was > 100 µM (inactive); in [9], > 100 µM (inactive); in [10], > 100 µM (inactive); in [11], > 100 µM (inactive). Further, the GI50 is > 100 µM (inactive) and 91 µM (inactive) in assay [12]; > 100 µM (inactive) in assay [13]; > 100 µM (inactive) in [18]; > 100 µM (inactive) in assay [19]; > 100 µM (inactive) in [14]; > 100 µM (inactive) in assay [15].
As for `CCOC(=O)C(CC(=O)OC)NC(=O)C(CC(=O)OC)NC(=O)C(CC(=O)OC)NC(=O)C(CC(=O)OC)NC(=O)OCc1ccccc1` (stereo not given) (Cbz-D(OMe)D(OMe)D(OMe)D(OMe)-OEt; configuration not given here), the GI50 in assay [1], in assay [2], in assay [3], in assay [16], in assay [4] and in assay [5] was > 100 µM (inactive) each time. In addition, the GI50 in assay [6], in assay [7], in assay [8], in assay [10], in assay [11] and in assay [12] was > 100 µM (inactive) in each case. Also, the GI50 in assay [19], in [14] and in assay [15] was > 100 µM (inactive) each time.
Regarding `COc1ccc([C@@]23CCC(=O)C[C@@H]2N(C)CC3)cc1OC`, the GI50 in assay [1], in assay [16], in assay [4], in [5], in [6] and in [7] was > 100 µM (inactive) each time. Also, the GI50 in assay [8], in [17], in assay [9], in [10], in assay [11] and in assay [12] was > 100 µM (inactive) in each case. Also, the GI50 in assay [13] is > 100 µM (inactive); in assay [18] it was > 100 µM (inactive); in assay [19], 66.2 µM (inactive); in assay [14] it was > 100 µM (inactive); in [15], > 100 µM (inactive).
As to `Cn1c(-c2cccc([N+](=O)[O-])c2)[n+](C)c2ccccc21`, the GI50 was 46.9 µM (inactive) in assay [1]; > 100 µM (inactive) in assay [2]; > 100 µM (inactive) in assay [3]; 29.2 µM (inactive) in assay [16]; 40.9 µM (inactive) in assay [4]; 44.4 µM (inactive) in assay [5]. Besides, the GI50 in assay [7] is > 100 µM (inactive); in [8], 25.7 µM (inactive); in assay [9], > 100 µM (inactive); in [10], > 100 µM (inactive); in [11] it was 49 µM (inactive); in assay [12] it was > 100 µM (inactive). The GI50 in assay [13], in [18], in assay [19], in assay [14] and in assay [15] was > 100 µM (inactive) each time.
Turning to `CSc1c(C#N)c(O)n(-c2ccc(C)cc2)c(=O)c1C(C)=O`, the GI50 in [1], in assay [2], in assay [3], in assay [16], in assay [4] and in assay [5] was > 100 µM (inactive) each time. Besides, the GI50 was > 100 µM (inactive) in assay [7]; > 100 µM (inactive) in assay [8]; 57.5 µM (inactive) in assay [17]; > 100 µM (inactive) in [9]; 42.8 µM (inactive) in assay [10]; > 100 µM (inactive) in assay [11]. In addition, the GI50 in assay [12], in [18], in assay [19], in [14] and in [15] was > 100 µM (inactive) throughout.
With `CN1CCN(C2=C(Cl)C3(OCCS3)C(F)(F)C2(F)F)CC1` (stereo not given), the GI50 is 95.9 µM (inactive) in [1]; > 100 µM (inactive) in [3]; 64.4 µM (inactive) in [16]; 39.4 µM (inactive) in assay [4]; > 100 µM (inactive) in assay [5]; > 100 µM (inactive) in assay [6]. Besides, the GI50 in assay [7] was > 100 µM (inactive); in [8], 27.1 µM (inactive); in assay [17], > 100 µM (inactive); in assay [9], 79.6 µM (inactive); in assay [10], > 100 µM (inactive); in assay [11] it was > 100 µM (inactive). The GI50 in [12] is 44.5 µM (inactive); in assay [13], 48.2 µM (inactive); in [18] it was > 100 µM (inactive); in assay [19], > 100 µM (inactive); in assay [14] it was > 100 µM (inactive); in assay [15], 27.2 µM (inactive).
Consider `CC1CC(=O)Nc2cc(Cl)ccc2N1C(=O)C1CC1` (stereo not given), for which the GI50 in assay [1], in [2], in assay [3], in assay [16], in assay [4] and in assay [5] was > 100 µM (inactive) throughout. The GI50 in assay [6], in assay [7], in assay [8], in assay [17], in assay [10] and in [11] was > 100 µM (inactive) throughout. Besides, the GI50 in assay [12], in assay [13], in assay [18], in assay [14] and in [15] was > 100 µM (inactive) each time.
Consider `C[n+]1c(-c2ccc(/C=N/Nc3ccnc(N/N=C/c4ccc(-c5cn6ccccc6[n+]5C)cc4)n3)cc2)cn2ccccc21`, for which the GI50 in [1] is > 100 µM (inactive); in assay [3], 20.7 µM (inactive); in assay [16] it was 24.5 µM (inactive); in [4], 24.7 µM (inactive); in [5], 39.3 µM (inactive); in assay [6], 28.9 µM (inactive). In addition, the GI50 is > 100 µM (inactive) in [17]; 31.9 µM (inactive) in [9]; 60.4 µM (inactive) in assay [10]; 82.4 µM (inactive) in assay [11]; 23.5 µM (inactive) in [12]; 17.9 µM (inactive) in assay [13]. Also, the GI50 in assay [18] was 20 µM (inactive); in assay [19], 59.4 µM (inactive); in assay [14], 41.8 µM (inactive); in assay [15] it was 24.2 µM (inactive).
